{
  "source": "paper PMC11617253",
  "about": "“Gene expansion in the hawkmoth Manduca sexta drives evolution of food-associated odorant receptors” (iScience, 2024)",
  "assay_in_all_cases": "single sensillum recording, Drosophila empty neuron (ab3A)",
  "type_in_all_cases": "cell-based",
  "key": {"MsexOR8": {"molecular_target": "T1, MsexOR8 (Manduca sexta, UniProt A0A0P1IW06)", "T1 construct": "gene OR-8; full-length CDS from antennal RNA, UAS transgene (pUASTattB) in D. melanogaster ab3A empty neuron (delta-halo; DmelOr22a-Gal4); partner is endogenous fly Orco; with Odorant receptor coreceptor (Drosophila melanogaster, endogenous to the ab3A neuron)", "T1 sequence (A0A0P1IW06 1-407)": "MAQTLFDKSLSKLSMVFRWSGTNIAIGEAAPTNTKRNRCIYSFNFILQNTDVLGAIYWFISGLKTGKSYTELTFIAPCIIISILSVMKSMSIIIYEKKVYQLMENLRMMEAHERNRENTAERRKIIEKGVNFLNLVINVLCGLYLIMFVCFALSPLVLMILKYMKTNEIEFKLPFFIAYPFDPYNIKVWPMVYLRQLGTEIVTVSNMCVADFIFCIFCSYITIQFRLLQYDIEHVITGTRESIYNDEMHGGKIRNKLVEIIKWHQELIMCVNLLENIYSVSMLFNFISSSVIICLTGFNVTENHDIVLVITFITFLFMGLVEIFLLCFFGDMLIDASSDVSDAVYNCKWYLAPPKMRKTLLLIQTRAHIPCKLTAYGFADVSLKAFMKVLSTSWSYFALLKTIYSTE", "T1 sequence (Q9VNB5 1-486 partner)": "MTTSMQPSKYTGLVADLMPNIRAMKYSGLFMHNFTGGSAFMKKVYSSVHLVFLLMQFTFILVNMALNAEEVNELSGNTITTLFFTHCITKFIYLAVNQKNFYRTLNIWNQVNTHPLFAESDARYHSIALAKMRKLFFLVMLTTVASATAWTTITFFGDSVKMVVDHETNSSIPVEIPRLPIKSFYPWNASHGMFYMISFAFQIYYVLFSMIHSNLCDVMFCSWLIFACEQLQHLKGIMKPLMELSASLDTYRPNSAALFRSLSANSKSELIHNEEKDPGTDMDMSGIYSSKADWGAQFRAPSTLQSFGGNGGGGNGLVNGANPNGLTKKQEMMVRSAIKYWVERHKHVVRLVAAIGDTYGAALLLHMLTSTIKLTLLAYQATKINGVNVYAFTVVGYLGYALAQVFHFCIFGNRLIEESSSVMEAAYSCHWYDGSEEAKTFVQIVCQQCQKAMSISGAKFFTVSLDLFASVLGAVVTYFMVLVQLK", "conditions": "odor dilutions 10^-7 to 10^-2 v/v on filter paper, 500 ms pulse"}, "MsexOR33": {"molecular_target": "T2, MsexOR33 (Manduca sexta, UniProt A0A0P1J430)", "T2 construct": "gene OR-33; full-length CDS from antennal RNA, UAS transgene (pUASTattB) in D. melanogaster ab3A empty neuron (delta-halo; DmelOr22a-Gal4); partner is endogenous fly Orco; with Odorant receptor coreceptor (Drosophila melanogaster, endogenous to the ab3A neuron)", "T2 sequence (A0A0P1J430 entry or part of it, one chain of several)": "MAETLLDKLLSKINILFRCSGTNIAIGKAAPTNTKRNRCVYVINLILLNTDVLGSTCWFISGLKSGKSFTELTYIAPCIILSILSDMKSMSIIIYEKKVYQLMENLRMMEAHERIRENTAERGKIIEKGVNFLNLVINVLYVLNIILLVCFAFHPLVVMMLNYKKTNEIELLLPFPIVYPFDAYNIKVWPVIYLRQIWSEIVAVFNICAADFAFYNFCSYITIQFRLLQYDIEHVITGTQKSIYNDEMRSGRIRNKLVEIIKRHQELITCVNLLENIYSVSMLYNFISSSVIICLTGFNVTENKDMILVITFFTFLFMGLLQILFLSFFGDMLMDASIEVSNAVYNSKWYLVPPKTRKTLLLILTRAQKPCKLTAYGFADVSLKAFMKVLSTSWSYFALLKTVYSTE", "conditions": "odor dilutions 10^-7 to 10^-2 v/v on filter paper, 500 ms pulse"}, "MsexOR36": {"molecular_target": "T3, MsexOR36 (Manduca sexta, UniProt A0A0P1IVT0)", "T3 construct": "gene OR-36; full-length CDS (407 aa) from antennal RNA, UAS transgene (pUASTattB) in D. melanogaster ab3A empty neuron (delta-halo; DmelOr22a-Gal4); partner is endogenous fly Orco; with Odorant receptor coreceptor (Drosophila melanogaster, endogenous to the ab3A neuron)", "T3 sequence (A0A0P1IVT0 1-407)": "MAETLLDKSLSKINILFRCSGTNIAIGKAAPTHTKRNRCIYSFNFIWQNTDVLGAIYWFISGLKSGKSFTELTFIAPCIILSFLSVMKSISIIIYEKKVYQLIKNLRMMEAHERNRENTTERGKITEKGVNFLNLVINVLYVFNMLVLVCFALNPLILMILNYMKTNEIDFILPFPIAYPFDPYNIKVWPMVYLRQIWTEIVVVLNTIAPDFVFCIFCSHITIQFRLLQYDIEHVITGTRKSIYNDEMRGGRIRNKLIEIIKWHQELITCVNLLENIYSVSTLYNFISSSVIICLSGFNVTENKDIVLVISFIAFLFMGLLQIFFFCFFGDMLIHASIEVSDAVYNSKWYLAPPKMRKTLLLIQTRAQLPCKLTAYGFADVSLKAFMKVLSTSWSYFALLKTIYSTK", "T3 sequence (Q9VNB5 1-486 partner)": "T1 sequence (Q9VNB5 1-486 partner)", "conditions": "odor dilution 10^-2 v/v on filter paper, 500 ms pulse"}},
  "data": [
    {"compound": "CCCCC(=O)OCCC", "note": "[propyl valerate]", "values": [
      {"measurement": "single sensillum recording, Drosophila empty neuron (ab3A)", "setting": "MsexOR8", "result": "each responding to only one odorant: MsexOR33 (nonanal) and MsexOR8 (propyl valerate)"}
    ]},
    {"compound": "CCCCCCCCC=O", "note": "[nonanal]", "values": [
      {"measurement": "single sensillum recording, Drosophila empty neuron (ab3A)", "setting": "MsexOR33", "result": "each responding to only one odorant: MsexOR33 (nonanal) and MsexOR8 (propyl valerate)"}
    ]},
    {"compound": "C=CC(C)=CCC=C(C)C", "note": "[β-ocimene]", "values": [
      {"measurement": "single sensillum recording, Drosophila empty neuron (ab3A)", "setting": "MsexOR36", "result": "β-ocimene, which was detected only by MsexOR36"}
    ]}
  ]
}
